Results: ChEMBL document CHEMBL1201862, “PubChem BioAssay data set” (2004)
Calls of active or inactive are those of the source. No rule for the calls is given here.

How the values were obtained:
[1] = viability loss in Vero cells – cytotoxicity control for Vif-APOBEC3G degradation inhibitor project, dose response (AID 1117358); format: functional; settings: Vero
[2] = HIV-1 Vif–A3G interaction blockers – biochemical, TR-FRET, GST-Vif 1-94, biotin-A3G peptide, dose response retest, primary screen (AID 1117319); format: functional;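 also: TR-FRET signal of purified GST-Vif binding a biotinylated A3G peptide; inhibitors lower the FRET signal by blocking Vif and A3G binding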
Genome polyprotein = Genome polyprotein (dengue virus type 2, UniProt P29990); assay: flavivirus cap methylation enzyme inhibition – biochemical, confirmation dose response, primary screen (AID 588689); format: functional
Vero [3] = assay: cells; format: functional; settings: Chlorocebus sabaeus
[4] = target: Bifunctional protein GlmU (Mycobacterium tuberculosis, UniProt P9WMN3); assay: Inhibitors of Mycobacterial Glucosamine-1-phosphate acetyl transferase (GlmU). Secondary screen.; parameters: species or system Mycobacterium tuberculosis H37Rv
[5] = target: Induced myeloid leukemia cell differentiation protein Mcl-1 (Homo sapiens, UniProt Q07820); format: functional
Nonstructural protein 1 = Nonstructural protein 1 (Influenza A virus, UniProt Q194T2); format: functional, Influenza A virus (A/California/07/2009(H1N1))
Vero [6] = assay: viability of Vero cells under compound – cytotoxicity control for flavivirus capping enzyme inhibitors (AID 588742); format: functional; settings: Chlorocebus sabaeus
[7] = target: T1, Long-chain-fatty-acid--AMP ligase FadD28 (Mycobacterium tuberculosis, UniProt P9WQ59); assay: Fluorescence polarization aasay to screen for inhibitors that compete for the binding of FadD28 to a bisubstrate Measured in Biochemical System Using Plate Reader - 2147-01_Inhibitor_Dose_CherryPick_Activity.; format: functional, Mycobacterium tuberculosis H37Rv
T1 sequence (P9WQ59 whole entry): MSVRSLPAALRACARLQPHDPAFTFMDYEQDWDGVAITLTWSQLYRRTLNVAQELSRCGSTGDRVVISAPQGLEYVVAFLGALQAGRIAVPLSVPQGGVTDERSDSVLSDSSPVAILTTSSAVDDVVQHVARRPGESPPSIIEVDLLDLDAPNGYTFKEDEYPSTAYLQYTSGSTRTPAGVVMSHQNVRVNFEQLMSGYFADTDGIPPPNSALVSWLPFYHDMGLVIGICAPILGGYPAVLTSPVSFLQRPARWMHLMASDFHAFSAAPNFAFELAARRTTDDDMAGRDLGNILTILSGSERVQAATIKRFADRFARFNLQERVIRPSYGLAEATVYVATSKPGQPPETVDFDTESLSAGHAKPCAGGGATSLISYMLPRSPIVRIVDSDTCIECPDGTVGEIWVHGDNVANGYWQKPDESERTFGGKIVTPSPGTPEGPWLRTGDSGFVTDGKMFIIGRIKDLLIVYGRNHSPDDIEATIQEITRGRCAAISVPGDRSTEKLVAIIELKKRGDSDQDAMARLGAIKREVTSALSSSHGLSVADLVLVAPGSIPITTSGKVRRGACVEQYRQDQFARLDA

Large T antigen = Large T antigen (Simian virus 40, UniProt P03070); format: functional, Betapolyomavirus macacae;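 also: Confirmatory-stage PubChem screen for compounds that inhibit SV40 T antigen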
Aminopeptidase N = target: T2, Aminopeptidase N (Plasmodium falciparum FcB1/Columbia, UniProt O96935); assay: malaria alanyl aminopeptidase activity blockers – biochemical, fluorogenic H-Leu-NHMec substrate, 1536-well (AID 1445); parameters: species or system Plasmodium falciparum 3D7, 3D7
T2 sequence (O96935 whole entry): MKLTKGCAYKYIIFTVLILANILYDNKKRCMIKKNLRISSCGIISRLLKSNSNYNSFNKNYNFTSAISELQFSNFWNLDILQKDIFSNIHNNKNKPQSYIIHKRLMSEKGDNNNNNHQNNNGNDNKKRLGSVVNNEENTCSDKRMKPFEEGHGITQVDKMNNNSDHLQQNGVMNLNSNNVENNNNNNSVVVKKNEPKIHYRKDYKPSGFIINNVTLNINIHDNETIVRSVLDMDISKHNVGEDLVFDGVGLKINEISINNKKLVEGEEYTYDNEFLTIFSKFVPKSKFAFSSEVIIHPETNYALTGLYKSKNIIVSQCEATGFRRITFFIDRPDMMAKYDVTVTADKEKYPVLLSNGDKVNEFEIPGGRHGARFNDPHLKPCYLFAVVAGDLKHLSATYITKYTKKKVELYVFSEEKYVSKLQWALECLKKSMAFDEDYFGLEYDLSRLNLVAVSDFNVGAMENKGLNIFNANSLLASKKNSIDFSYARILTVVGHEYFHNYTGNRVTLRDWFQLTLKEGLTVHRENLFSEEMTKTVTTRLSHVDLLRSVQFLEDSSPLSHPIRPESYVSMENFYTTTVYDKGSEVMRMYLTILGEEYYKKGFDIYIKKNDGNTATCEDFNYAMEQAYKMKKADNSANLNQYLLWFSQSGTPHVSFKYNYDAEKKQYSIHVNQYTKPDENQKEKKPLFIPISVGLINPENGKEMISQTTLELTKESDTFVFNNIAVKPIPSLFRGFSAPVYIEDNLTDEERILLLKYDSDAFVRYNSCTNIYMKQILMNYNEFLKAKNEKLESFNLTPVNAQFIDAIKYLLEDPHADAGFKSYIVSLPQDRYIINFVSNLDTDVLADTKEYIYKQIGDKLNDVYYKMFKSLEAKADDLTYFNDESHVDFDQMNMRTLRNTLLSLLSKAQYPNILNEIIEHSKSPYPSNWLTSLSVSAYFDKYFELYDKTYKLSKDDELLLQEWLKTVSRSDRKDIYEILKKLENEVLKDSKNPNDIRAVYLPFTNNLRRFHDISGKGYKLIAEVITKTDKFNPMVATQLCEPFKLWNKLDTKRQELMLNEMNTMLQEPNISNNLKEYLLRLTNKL

[8] = target: T3, High affinity choline transporter 1 (Homo sapiens, UniProt Q9GZV3); assay: human choline transporter blockers, potency – cell-based, 5-point CRC, membrane potential dye, dose response (AID 504840); format: functional
T3 sequence (Q9GZV3 whole entry): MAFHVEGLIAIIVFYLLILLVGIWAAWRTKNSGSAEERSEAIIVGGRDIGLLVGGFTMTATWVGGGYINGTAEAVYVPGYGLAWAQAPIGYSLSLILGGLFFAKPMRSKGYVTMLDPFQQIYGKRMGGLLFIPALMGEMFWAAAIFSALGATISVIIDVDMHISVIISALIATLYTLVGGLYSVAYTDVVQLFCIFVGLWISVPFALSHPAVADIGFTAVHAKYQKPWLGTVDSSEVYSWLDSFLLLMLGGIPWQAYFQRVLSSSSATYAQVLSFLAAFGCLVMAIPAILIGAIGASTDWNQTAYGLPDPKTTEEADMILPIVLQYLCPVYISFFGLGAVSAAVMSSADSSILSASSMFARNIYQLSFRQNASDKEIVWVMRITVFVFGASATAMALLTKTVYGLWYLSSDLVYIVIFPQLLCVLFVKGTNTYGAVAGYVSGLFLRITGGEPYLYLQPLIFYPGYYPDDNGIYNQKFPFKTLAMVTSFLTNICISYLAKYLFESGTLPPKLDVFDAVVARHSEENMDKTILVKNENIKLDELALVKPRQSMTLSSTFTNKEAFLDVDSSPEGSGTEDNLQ

Sequence of Large T antigen (P03070 whole entry): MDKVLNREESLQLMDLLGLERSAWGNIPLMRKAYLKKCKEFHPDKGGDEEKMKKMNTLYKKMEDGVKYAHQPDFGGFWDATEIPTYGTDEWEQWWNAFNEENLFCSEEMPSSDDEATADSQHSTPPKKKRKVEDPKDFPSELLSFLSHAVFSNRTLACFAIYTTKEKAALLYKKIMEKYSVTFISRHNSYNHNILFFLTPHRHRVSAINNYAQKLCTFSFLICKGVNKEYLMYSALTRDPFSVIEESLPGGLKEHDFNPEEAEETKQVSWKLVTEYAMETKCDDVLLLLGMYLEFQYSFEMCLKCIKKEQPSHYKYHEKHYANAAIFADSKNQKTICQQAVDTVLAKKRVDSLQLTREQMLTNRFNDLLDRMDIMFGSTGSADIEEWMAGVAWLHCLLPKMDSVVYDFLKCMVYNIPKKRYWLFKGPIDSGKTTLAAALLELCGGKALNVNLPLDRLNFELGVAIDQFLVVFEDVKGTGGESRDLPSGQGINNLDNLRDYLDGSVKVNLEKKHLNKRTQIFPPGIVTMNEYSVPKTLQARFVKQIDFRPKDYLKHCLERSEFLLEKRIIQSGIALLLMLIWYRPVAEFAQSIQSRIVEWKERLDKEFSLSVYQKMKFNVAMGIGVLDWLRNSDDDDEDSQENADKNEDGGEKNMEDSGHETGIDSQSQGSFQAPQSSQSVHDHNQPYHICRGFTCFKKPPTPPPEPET
Sequence of Genome polyprotein (P29990 2492-3391 limits assumed): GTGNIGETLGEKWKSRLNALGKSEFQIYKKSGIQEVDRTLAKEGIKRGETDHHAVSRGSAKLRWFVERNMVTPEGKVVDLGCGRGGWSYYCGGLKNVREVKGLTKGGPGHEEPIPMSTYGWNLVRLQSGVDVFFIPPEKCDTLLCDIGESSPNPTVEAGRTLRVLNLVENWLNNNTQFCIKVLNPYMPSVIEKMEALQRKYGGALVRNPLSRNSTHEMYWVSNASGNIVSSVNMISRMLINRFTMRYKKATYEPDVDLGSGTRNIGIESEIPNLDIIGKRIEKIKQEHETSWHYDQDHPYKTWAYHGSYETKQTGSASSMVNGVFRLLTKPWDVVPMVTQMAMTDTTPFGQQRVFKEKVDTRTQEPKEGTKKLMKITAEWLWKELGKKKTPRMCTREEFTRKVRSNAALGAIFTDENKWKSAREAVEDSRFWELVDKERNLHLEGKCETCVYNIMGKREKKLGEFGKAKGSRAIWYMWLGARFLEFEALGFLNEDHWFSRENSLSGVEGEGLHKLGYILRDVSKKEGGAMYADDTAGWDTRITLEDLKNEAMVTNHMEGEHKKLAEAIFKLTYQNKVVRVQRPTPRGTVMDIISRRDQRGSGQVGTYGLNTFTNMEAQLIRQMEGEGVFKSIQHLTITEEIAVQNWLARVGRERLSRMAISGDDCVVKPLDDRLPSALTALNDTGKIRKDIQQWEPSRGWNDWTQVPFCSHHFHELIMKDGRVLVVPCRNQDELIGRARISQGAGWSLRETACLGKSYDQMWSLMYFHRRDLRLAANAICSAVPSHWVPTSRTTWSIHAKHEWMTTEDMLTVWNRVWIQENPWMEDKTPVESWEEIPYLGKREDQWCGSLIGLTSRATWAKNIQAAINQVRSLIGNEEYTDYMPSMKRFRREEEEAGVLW
Sequence of Induced myeloid leukemia cell differentiation protein Mcl-1 (Q07820 whole entry): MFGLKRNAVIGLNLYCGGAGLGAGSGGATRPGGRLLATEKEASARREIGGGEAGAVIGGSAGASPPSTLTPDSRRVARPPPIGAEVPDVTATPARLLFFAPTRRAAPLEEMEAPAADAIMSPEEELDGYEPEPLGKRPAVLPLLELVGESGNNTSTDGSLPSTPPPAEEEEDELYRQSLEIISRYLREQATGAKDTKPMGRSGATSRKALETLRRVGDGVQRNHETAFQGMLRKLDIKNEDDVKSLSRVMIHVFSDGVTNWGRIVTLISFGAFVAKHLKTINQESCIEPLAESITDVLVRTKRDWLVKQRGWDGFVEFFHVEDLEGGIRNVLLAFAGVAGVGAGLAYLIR
Sequence of Bifunctional protein GlmU (P9WMN3 whole entry): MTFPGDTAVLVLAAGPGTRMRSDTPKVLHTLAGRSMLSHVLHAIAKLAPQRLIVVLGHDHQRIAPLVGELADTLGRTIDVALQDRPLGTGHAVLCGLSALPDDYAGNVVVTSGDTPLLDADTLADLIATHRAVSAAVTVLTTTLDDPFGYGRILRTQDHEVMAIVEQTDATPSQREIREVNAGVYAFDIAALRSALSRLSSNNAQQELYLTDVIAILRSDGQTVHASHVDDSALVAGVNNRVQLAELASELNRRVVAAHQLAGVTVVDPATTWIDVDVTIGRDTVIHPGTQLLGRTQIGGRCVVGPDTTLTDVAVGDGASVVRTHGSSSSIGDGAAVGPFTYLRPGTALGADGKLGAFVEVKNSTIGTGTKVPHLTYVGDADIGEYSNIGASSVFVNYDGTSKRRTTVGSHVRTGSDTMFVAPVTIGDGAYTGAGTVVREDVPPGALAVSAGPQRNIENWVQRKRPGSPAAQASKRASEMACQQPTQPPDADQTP
Sequence of Nonstructural protein 1 (Q194T2 whole entry): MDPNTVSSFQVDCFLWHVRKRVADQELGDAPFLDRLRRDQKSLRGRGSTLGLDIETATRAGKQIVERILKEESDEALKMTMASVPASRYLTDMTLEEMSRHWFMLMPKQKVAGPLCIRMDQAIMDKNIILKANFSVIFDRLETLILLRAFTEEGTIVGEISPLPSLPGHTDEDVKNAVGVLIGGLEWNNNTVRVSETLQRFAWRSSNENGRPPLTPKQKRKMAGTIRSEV

## O=C(Nc1cccc(C(F)(F)F)c1)c1cccnc1NCCc1ccccc1
[1]
  CC50: > 40 µM (active)

## CC(C)N1CCC2(CC1)C(C#N)=C(N)NC(S)=C2C#N
[2]
  IC50: > 100 µM (active)
[1]
  CC50: > 40 µM (active)

## COc1cc(/C=C2/C(=O)c3cccc([N+](=O)[O-])c3C2=O)c(Br)cc1O
Genome polyprotein
  IC50: 7.44 µM (active)
Vero [3]
  CC50: 16.4 µM (active)
[4]
  IC50: 60.9 µM (active)
[5]
  IC50: 1.39 µM (active)
Nonstructural protein 1
  IC50: 20.9 µM (active)
Vero [6]
  CC50: 34 µM (active)
[7]
  AC50: > 100 µM (inactive)
Large T antigen
  IC50: 13.9 µM (active)
Aminopeptidase N
  IC50: 5.94 µM (active)
[8]
  IC50: 9.13 µM (active)
